This is an account of results in US20220365085A1, “B[…], THE USE OF B[…], SENSORS […] WITH THE SAID B[…] AND THE DETECTION METHOD OF SARS-COV-2 VIRUS” (SENSDX SPÓLKA AKCYJNA, priority 2019, published 2022).

The structures appear in SMILES notation. Numbered stars: 1 amine (or outer) side, 2 acyl side, 3 side chain; on linkers, the order of the positions; unused ones are H or OH. Square brackets hold non-standard residues; d marks the D form. Peptide text beside a SMILES is read from it. * marks the point of attachment. ξ: configuration not given here. X1 = O=C([C@@H](N[*:1])c1cnc[nH]1)[*:2]; Ile(3ξ) = CCC(C)[C@H](N)C(=O)O; Lauroyl = CCCCCCCCCCCC(=O)*

This assay deals with WHN-N protein (SARS-CoV-2 nucleocapsid N protein) (Severe acute respiratory syndrome coronavirus 2, UniProt P0DTC9). It is filed as binding.

Regarding `CCCCCCCCCCCC(=O)N[C@H](C(=O)N1CCC[C@H]1C(=O)N[C@H](C(=O)N[C@@H](Cc1ccc(O)cc1)C(=O)N[C@@H](Cc1c[nH]cn1)C(=O)N[C@@H](CCCCN)C(=O)N[C@@H](CC(C)C)C(N)=O)C(C)CC)[C@@H](C)O` (some centres unmarked) [11-KOD7, 11-Mrcpt-TPIYHKL-NH2] (Lauroyl-TP[Ile(3ξ)]YHKL-NH2), the “specificity of the peptide sequence” value was “specific for SARS-CoV-2 virus”. Then `CCCCCCCCCCCC(=O)N[C@H](C(=O)N[C@H](C(=O)N[C@@H](CO)C(=O)N[C@@H](CC(N)=O)C(=O)N[C@@H](Cc1c[nH]cn1)C(=O)N[C@@H](CO)C(=O)N[C@@H](Cc1c[nH]cn1)C(=O)N[C@@H](Cc1c[nH]cn1)C(=O)N[C@@H](Cc1c[nH]cn1)C(=O)N[C@@H](CC(=O)O)C(=O)N[C@H](C(=O)N[C@@H](CC(C)C)C(N)=O)C(C)CC)C(C)CC)c1cnc[nH]1` (stereo partly drawn) [11-KOD1, 11-Mrcpt-HISNHSHHHDIL-NH2] (Lauroyl-[X1][Ile(3ξ)]SNHSHHHD[Ile(3ξ)]L-NH2), with “specific for the WHN-N protein”.
